Each block holds one compound with its values, some of them ahead of it.
Experiments:
MOLM-13 = assay: Cell growth inhibition, CellTiter-Glo Luminescent Cell Viability Assay, MOLM-13; format: cell-based; details: Homo sapiens, MOLM-13, 96 h, MOLM-13 cells, 4 days incubation
Description: (§1) Cell growth inhibitory activity of representative Compounds of the Disclosure was determined in various cell lines using CellTiter-Glo® Luminescent Cell Viability Assay. Cells were seeded in 384-well white opaque cell culture plates at a density of 2,000 cells/well with serially diluted compounds and incubated at 37° C. in an atmosphere of 95% air and 5% CO2 for 4 days. Cell viability was determined using the CellTiter-Glo® Luminescent Cell Viability Assay Kit (Promega, Madison, Wis.) according to the manufacture's instruction. Briefly, a volume of CellTiter-Glo® Reagent equal to the volume of cell culture medium was added to each well, and then the plates were incubated at room temperature for 10-20 minutes. The luminescent signal was measured using a Tecan Infinite M1000 multimode microplate reader (Tecan, Morrisville, N.C.). The half maximal inhibitory concentration (IC50) was calculated using the GraphPad Prism 5 software (GraphPad Software, La Jolla, Calif.).

MDA-MB-231 = assay: Cell growth inhibition, CellTiter-Glo Luminescent Cell Viability Assay, MDA-MB-231; format: cell-based; details: Homo sapiens, MDA-MB-231, 96 h, MDA-MB-231 cells, 4 days incubation
Description: as §1

SMILES: Cc1c(C#Cc2cnn(CCCCNc3cccc4c3C(=O)N(C3(F)CCC(=O)NC3=O)C4=O)c2)sc2c1C(c1ccc(Cl)cc1)=NCc1nnc(C)n1-2 (stereo not shown) [compound 144, 4-((4-(4-((4-(4-chlorophenyl)-3,9-dimethyl-6H-thieno[3,2-f][1,2,4]triazolo[4,3-a][1,4]diazepin-2-yl)ethynyl)-1H-pyrazol-1-yl)butyl)amino)-2-(3-fluoro-2,6-dioxopiperidin-3-yl)isoindoline-1,3-dione]
IC50 (MOLM-13): 6.8 nM | IC50 (MDA-MB-231): 10.1 nM

SMILES: Cc1c(C#Cc2cnn(CCCCOc3cccc4c3CN(C3CCC(=O)NC3=O)C4=O)c2)sc2c1C(c1ccc(Cl)cc1)=NCc1nnc(C)n1-2 (stereo not shown) [compound 146, 3-(4-(4-(4-((4-(4-chlorophenyl)-3,9-dimethyl-6H-thieno[3,2-f][1,2,4]triazolo[4,3-a][1,4]diazepin-2-yl)ethynyl)-1H-pyrazol-1-yl)butoxy)-1-oxoisoindolin-2-yl)piperidine-2,6-dione]
IC50 (MOLM-13): 1 nM | IC50 (MDA-MB-231): 1.2 nM

SMILES: Cc1c(C#Cc2cnn(CCCN3CCC(Nc4cccc5c4CN(C4CCC(=O)NC4=O)C5=O)CC3)c2)sc2c1C(c1ccc(Cl)cc1)=NCc1nnc(C)n1-2 (stereo not shown) [compound 148, 3-(4-((1-(3-(4-((4-(4-chlorophenyl)-3,9-dimethyl-6H-thieno[3,2-f][1,2,4]triazolo[4,3-a][1,4]diazepin-2-yl)ethynyl)-1H-pyrazol-1-yl)propyl)piperidin-4-yl)amino)-1-oxoisoindolin-2-yl)piperidine-2,6-dione]
IC50 (MOLM-13): 0.24 nM | IC50 (MDA-MB-231): 0.4 nM

SMILES: Cc1c(C#Cc2cnn(CCCCN3CCC(Nc4cccc5c4CN(C4CCC(=O)NC4=O)C5=O)CC3)c2)sc2c1C(c1ccc(Cl)cc1)=NCc1nnc(C)n1-2 (stereo not shown) [compound 149, 3-(4-((1-(4-(4-((4-(4-chlorophenyl)-3,9-dimethyl-6H-thieno[3,2-f][1,2,4]triazolo[4,3-a][1,4]diazepin-2-yl)ethynyl)-1H-pyrazol-1-yl)butyl)piperidin-4-yl)amino)-1-oxoisoindolin-2-yl)piperidine-2,6-dione]
IC50 (MOLM-13): 0.42 nM | IC50 (MDA-MB-231): 0.67 nM

SMILES: Cc1c(C#Cc2cnn(CCn3cnc(CNc4cccc5c4CN(C4CCC(=O)NC4=O)C5=O)c3)c2)sc2c1C(c1ccc(Cl)cc1)=NCc1nnc(C)n1-2 (stereo not shown) [compound 150, 3-(4-(((1-(2-(4-((4-(4-chlorophenyl)-3,9-dimethyl-6H-thieno[3,2-f][1,2,4]triazolo[4,3-a][1,4]diazepin-2-yl)ethynyl)-1H-pyrazol-1-yl)ethyl)-1H-imidazol-4-yl)methyl)amino)-1-oxoisoindolin-2-yl)piperidine-2,6-dione]
IC50 (MOLM-13): > 100 nM | IC50 (MDA-MB-231): > 100 nM

SMILES: Cc1c(C#Cc2cnn(CCCn3cnc(CNc4cccc5c4CN(C4CCC(=O)NC4=O)C5=O)c3)c2)sc2c1C(c1ccc(Cl)cc1)=NCc1nnc(C)n1-2 (stereo not shown) [compound 151, 3-(4-(((1-(3-(4-((4-(4-chlorophneyl)-3,9-dimethyl-6H-thieno[3,2-f][1,2,4]triazolo[4,3-a][1,4]diazepin-2-yl)ethynyl)-1H-pyrazol-1-yl)propyl)-1H-imidazol-4-yl)methyl)amino)-1-oxoisoindolin-2-yl)piperidine-2,6-dione]
IC50 (MOLM-13): > 100 nM | IC50 (MDA-MB-231): > 100 nM

SMILES: Cc1c(C#Cc2cnn(CCCCn3cnc(CNc4cccc5c4CN(C4CCC(=O)NC4=O)C5=O)c3)c2)sc2c1C(c1ccc(Cl)cc1)=NCc1nnc(C)n1-2 (stereo not shown) [compound 152, 3-(4-(((1-(4-(4-((4-(4-chlorophenyl)-3,9-dimethyl-6H-thieno[3,2-f][1,2,4]triazolo[4,3-a][1,4]diazepin-2-yl)ethynyl)-1H-pyrazol-1-yl)butyl)-1H-imidazol-4-yl)methyl)amino)-1-oxoisoindolin-2-yl)piperidine-2,6-dione]
IC50 (MOLM-13): 8.7 nM | IC50 (MDA-MB-231): 12.2 nM

SMILES: Cc1c(C#Cc2cnn(CCn3cnc(COc4cccc5c4C(=O)N(C4CCC(=O)NC4=O)C5=O)c3)c2)sc2c1C(c1ccc(Cl)cc1)=NCc1nnc(C)n1-2 (stereo not shown) [compound 153, 4-((1-(2-(4-((4-(4-chlorophenyl)-3,9-dimethyl-6H-thieno[3,2-f][1,2,4]triazolo[4,3-a][1,4]diazepin-2-yl)ethynyl)-1H-pyrazol-1-yl)ethyl)-1H-imidazol-4-yl)methoxy)-2-(2,6-dioxopiperidin-3-yl)isoindoline-1,3-dione]
IC50 (MOLM-13): > 100 nM | IC50 (MDA-MB-231): > 100 nM

SMILES: Cc1c(C#Cc2cnn(CCn3cnc(COc4cccc5c4CN(C4CCC(=O)NC4=O)C5=O)c3)c2)sc2c1C(c1ccc(Cl)cc1)=NCc1nnc(C)n1-2 (stereo not shown) [compound 154, 3-(4-((1-(2-(4-((4-(4-chlorophenyl)-3,9-dimethyl-6H-thieno[3,2-f][1,2,4]triazolo[4,3-a][1,4]diazepin-2-yl)ethynyl)-1H-pyrazol-1-yl)ethyl)-1H-imidazol-4-yl)methoxy)-1-oxoisoindolin-2-yl)piperidine-2,6-dione]
IC50 (MOLM-13): > 100 nM | IC50 (MDA-MB-231): > 100 nM

The remaining lines, values ahead:

IC50 (MOLM-13): > 100 nM | IC50 (MDA-MB-231): > 100 nM
SMILES: Cc1c(C#Cc2cnn(CCCn3cnc(COc4cccc5c4C(=O)N(C4CCC(=O)NC4=O)C5=O)c3)c2)sc2c1C(c1ccc(Cl)cc1)=NCc1nnc(C)n1-2 (stereo not shown) [compound 155, 4-((1-(3-(4-((4-(4-chlorophenyl)-3,9-dimethyl-6H-thieno[3,2-f][1,2,4]triazolo[4,3-a][1,4]diazepin-2-yl)ethynyl)-1H-pyrazol-1-yl)propyl)-1H-imidazol-4-yl)methoxy)-2-(2,6-dioxopiperidin-3-yl)isoindoline-1,3-dione]

IC50 (MOLM-13): 12.8 nM | IC50 (MDA-MB-231): 17.6 nM
SMILES: Cc1c(C#Cc2cnn(CCCn3cnc(COc4cccc5c4CN(C4CCC(=O)NC4=O)C5=O)c3)c2)sc2c1C(c1ccc(Cl)cc1)=NCc1nnc(C)n1-2 (stereo not shown) [compound 156, 3-(4-((1-(3-(4-((4-(4-chlorophenyl)-3,9-dimethyl-6H-thieno[3,2-f][1,2,4]triazolo[4,3-a][1,4]diazepin-2-yl)ethynyl)-1H-pyrazol-1-yl)propyl)-1H-imidazol-4-yl)methoxy)-1-oxoisoindolin-2-yl)piperidine-2,6-dione]

IC50 (MOLM-13): 18.6 nM | IC50 (MDA-MB-231): 52.7 nM
SMILES: Cc1c(C#Cc2cnn(CCCC#Cc3ccc4c(c3)C(=O)N(C3CCC(=O)NC3=O)C4=O)c2)sc2c1C(c1ccc(Cl)cc1)=NCc1nnc(C)n1-2 (stereo not shown) [compound 157, 5-(5-(4-((4-(4-chlorophenyl)-3,9-dimethyl-6H-thieno[3,2-f][1,2,4]triazolo[4,3-a][1,4]diazepin-2-yl)ethynyl)-1H-pyrazolo-1-yl)pent-1-yn-1-yl)-2-(2,6-dioxopiperidin-3-yl)isoindoline-1,3-dione]

IC50 (MOLM-13): 2.5 nM | IC50 (MDA-MB-231): 7.2 nM
SMILES: Cc1c(C#Cc2cnn(CCCC#Cc3ccc4c(c3)C(=O)N(C3CCC(=O)NC3=O)C4=O)c2)sc2c1C(c1ccc(Cl)cc1)=N[C@@H](C)c1nnc(C)n1-2 (stereo partly drawn) [compound 158, 5-(5-(4-(((S)-4-(4-chlorophenyl)-3,6,9-trimethyl-6H-thieno[3,2-f][1,2,4]triazolo[4,3-a][1,4]diazepin-2-yl)ethynyl)-1H-pyrazolo-1-yl)pent-1-yn-1-yl)-2-(2,6-dioxopiperidin-3-yl)isoindoline-1,3-dione]

IC50 (MOLM-13): > 100 nM | IC50 (MDA-MB-231): > 100 nM
SMILES: Cc1c(C#Cc2cnn(CCCC#Cc3cccc4c3C(=O)N(C3CCCNC3=O)C4=O)c2)sc2c1C(c1ccc(Cl)cc1)=NCc1nnc(C)n1-2 (stereo not shown) [compound 159, 4-(5-(4-((4-(4-chlorophenyl)-3,9-dimethyl-6H-thieno[3,2-f][1,2,4]triazolo[4,3-a][1,4]diazepin-2-yl)ethynyl)-1H-pyrazol-1-yl)pent-1-yn-1-yl)-2-(2-oxopiperidin-3-yl)isoindoline-1,3-dione]

Reference: US10975093B2, “Fused 1,4-diazepines as BET protein degraders” (THE REGENTS OF THE UNIVERSITY OF MICHIGAN, priority 2016, dated 2021)
